Here are results for two compounds from patent US9394544B2, “Ameliorating oxidative stress in neurodegenerative disease via Nox1 targeting” (University of Central Florida Research Foundation, Inc., priority 2013, dated 2016).

Test [1] relates to Nox1. The experiment in a line: Nox1 immunostaining in rat SN after striatal 6-OHDA. It counts as in vivo. On the procedure: The experiments were carried out on rats, in accordance with the NIH Guide for the Care and Use of Laboratory Animals. All procedures were approved by the local Animal Care and Use Committee. Female Sprague Dawley (SD) rats (Charles River; 8-weeks-old at the time of the beginning of AAV expression or 6-OHDA treatment, 2 or 3 per cage) were maintained in a temperature/humidity-controlled environment under a 12 h light/dark cycle with free access to food and water. All rats were respectively allocated into […], Nox1 shRNA/AAV, T17N Rac1/AAV, and scramble (scb) shRNA/AAV or empty vector/AAV as control groups. […]
Free-floating sections (40 μm) were washed in 0.1 M PBS, incubated in 0.1 M PBS containing 5% normal donkey serum and 0.3% TritonX-100 for 1 h, and subsequently incubated overnight with primary antibodies (TH, 1:2,000; Nox1, 1:200; GFAP, 1:500; CD11b, 1:200) in 2% normal donkey serum in PBS at 4° C. and incubated in a 1:200 dilution of AlexaFluor conjugated donkey anti-rabbit (546) or donkey anti-mouse (488) antibodies for 1 h at room temperature, washed with PBS, incubated in TOTO-3 (1:1,000) in 0.1 M PBS for 5 min, and then mounted sequentially in glass slides using Vectashield. Mounted slices were evaluated for fluorescence under settings for 546, 488, and 660 nm emissions on a confocal microscope (Leica TCS SP5).

Test [2] relates to differentiated human dopaminergic cells (ReNcell VM). The experiment in a line: α-Synuclein and Nox1 levels in differentiated ReNcell VM human dopaminergic neurons exposed to PQ. The format is cell-based. From the text:
For the in vitro experiments on human dopaminergic neurons, human mesencephalic neuronal progenitor cell line available from Millipore (catalog number SCC008) was used. The specialty of these cells is that they are isolated from fetal human ventral mesencephalic region and subsequently immortalized by introduction of v-myc. The cells can readily differentiate into dopaminergic neurons upon withdrawal of growth factors (Millipore). The culture method was followed as indicated by the company with little modifications. Briefly, the cells were allowed to grow on laminin-coated (20 μg/ml) dishes in DMEM/F12-containing medium with B27 supplement, glutamax, heparin (10 U/ml), and gentamicin (50 μg/ml). This medium is called maintenance medium. Cell division was allowed by addition of the two growth factors in the medium viz., basic fibroblast growth factor (bFGF) and epidermal growth factor (EGF), both at a concentration of 20 ng/ml. […]
After each respective treatment, cells were fixed in 4% paraformaldehyde (PFA) for 20 min and permeabilized with 0.1% Triton X-100 in PBS for 10 min. […] For quantification of Flag^+ and α-synuclein^+ cells, >30 different fields per coverslip were analyzed on a Nikon inverted fluorescent microscope under a 20× and 40× magnification.

On to `NCCc1cc(O)c(O)cc1O` [6-OHDA, 6-hydroxydopamine], for which the “Nox1 expression in the substantia nigra vs vehicle” value in test [1] (3 days after striatal injection) is on record as “significant increase”. Also, in test [1] (rat SN after 6-OHDA administration), the “TH-positive neurons showing Nox1 nuclear staining” value was “About 75%”.
Consider `C[n+]1ccc(-c2cc[n+](C)cc2)cc1` [PQ, paraquat], for which the “Nox1 level (immunocytochemistry, Western blot)” value in test [2] (8 h PQ) is reported as “highly elevated”. Moreover, the α-synuclein level result in test [2] (PQ 800 or 1000 μM, 8 and 24 h) is listed as “increases over time”.
